Measured values: US7674807B2, “Heterocycle-substituted n-phenyl-phthalamide derivatives, related compounds and their use as insecticides” (Bayer CropScience AG, priority 2004, dated 2010)

Tests used:
[1] = system: larva of Cnaphalocrocis medinalis Guenee; assay: Test against larva of Cnaphalocrocis medinalis Guenee (sprayed paddy rice foliage); type: in vivo; conditions: 20 ppm concentration of the active component; second instar larvae; counted after 7 days; 25° C.
Experimental: Paddy rice (variety: Tamanishiki) planted in a pot was treated by spraying 50 ml per pot of the diluted aqueous solution of the prescribed concentration of the active compound prepared in the same manner as in the above-mentioned Biological Test Example 1. After the treated rice plant was dried in the air, their foliage part was cut in 4-5 cm length, which were put in a dish with 9 cm diameter with a sheet of filter paper and 2 ml of water. Five larvae of Cnaphalocrocis medinalis Guenee at the second instar were put in the dish that was placed in a room at the constant temperature of 25° C. After 2 and 4 days, each rest (each ⅓ amount) of foliage parts of rice plant were cut in the same manner and added to the dish. After 7 days the number of dead larvae was counted and the rate of death was calculated. In this test the results of 2 dishes at 1 section were averaged.

[2] = system: larva of Spodoptera litura; assay: Test against larva of Spodoptera litura (leaf dip, sweet potato leaves); type: in vivo; conditions: 20 ppm concentration of the active component; third instar larvae; counted after 7 days; 25° C.
Experimental: Preparation of Test Solution:
In order to make an appropriate formulation of an active compound, 1 part by weight of the active compound was mixed with the above-mentioned amount of solvent containing the above-mentioned amount of emulsifier and the mixture was diluted with water to a prescribed concentration.
Leaves of sweet potato were soaked in the test solution diluted to a prescribed concentration with water, dried in the air and put in a dish of 9 cm diameter.
10 larvae of Spodoptera litura at the third instar were placed on the leaves and kept in a room at the constant temperature of 25° C. After 2 and 4 days further leaves of sweet potato were added and after 7 days the number of dead larvae was counted and the rate of death was calculated.
In this test the results of 2 dishes at 1 section were averaged.

SMILES | controlling effect, rate of death [1] [%] | controlling effect, rate of death [2] [%]
Cc1cc(Cn2nc(C(F)(F)F)cc2C(F)(F)F)ccc1NC(=O)c1cccc([N+](=O)[O-])c1C(=O)N[C@@H](C)C[S+](C)[O-] (some centres unmarked) [compound 544] | 100 | 100
Cc1cc(Cn2cc(C(F)(F)C(F)(F)C(F)(F)F)c(C(F)(F)C(F)(F)C(F)(F)F)n2)ccc1NC(=O)c1cccc(Cl)c1C(=O)N[C@@H](C)CS(C)(=O)=O [compound 669] | 100 | 100
Cc1cc(Cn2nc(C(F)(F)F)nc2C(F)(F)F)ccc1NC(=O)c1cccc(Cl)c1C(=O)NC(C)(C)CS(C)(=O)=O [compound 139] | 100 | 100
CSC[C@H](C)NC(=O)c1c(Cl)cccc1C(=O)Nc1ccc(C(C)n2nc(C(F)(F)F)nc2C(F)(F)C(F)(F)F)cc1C (some centres unmarked) [compound 574] | 100 | 100
Cc1cc(Cn2nc(C(F)(F)F)nc2C(F)(F)F)ccc1NC(=O)c1cccc(I)c1C(=O)NC(C)C [compound 210] | 100 | 100
CSCC(C)(C)NC(=O)c1c(Cl)cccc1C(=O)Nc1ccc(Cn2nc(C(F)(F)F)nc2C(F)(F)F)cc1C [compound 137] | 100 | 100
Cc1cc(Cn2nc(C(F)(F)F)cc2C(F)(F)F)ccc1NC(=O)c1cccc(Cl)c1C(=O)NC(C)(C)C[S+](C)[O-] (racemic) [compound 9] | 100 | 100
Cc1cc(Cn2nc(C(F)(F)F)cc2C(F)(F)F)ccc1NC(=O)c1cccc(Cl)c1C(=O)NC(C)CS(C)(=O)=O (centres unmarked) [compound 16] | 100 | 100
Cc1cc(C(C)n2nc(C(F)(F)F)cc2C(F)(F)F)ccc1NC(=O)c1cccc(Cl)c1C(=O)N[C@@H](C)CS(C)(=O)=O (some centres unmarked) [compound 561] | 100 | 100
CSC[C@H](C)NC(=O)c1c(I)cccc1C(=O)Nc1ccc(Cn2cc(C(F)(F)C(F)(F)C(F)(F)F)c(C(F)(F)C(F)(F)F)n2)cc1C [compound 660] | 100 | 100
Cc1cc(Cn2cc(C(F)(F)C(F)(F)C(F)(F)C(F)(F)F)c(C(F)(F)F)n2)ccc1NC(=O)c1cccc(I)c1C(=O)N[C@@H](C)CS(C)(=O)=O [compound 650] | 100 | 100
Cc1cc(Cn2cc(C(F)(F)C(F)(F)C(F)(F)F)c(C(F)(F)C(F)(F)F)n2)ccc1NC(=O)c1cccc(Cl)c1C(=O)N[C@@H](C)CS(C)(=O)=O [compound 659] | 100 | 100
Cc1cc(C(C)n2nc(C(F)(F)F)cc2C(F)(F)F)ccc1NC(=O)c1cccc(I)c1C(=O)NC(C)(C)CS(C)(=O)=O (centres unmarked) [compound 567] | 100 | 100
CSCC(C)NC(=O)c1c(I)cccc1C(=O)Nc1ccc(Cn2nc(C(F)(F)F)cc2OC(F)F)cc1C (racemic) [compound 103] | 100 | 100
CSCC(C)NC(=O)c1c(I)cccc1C(=O)Nc1ccc(-c2cc(OC(F)F)n(C(F)F)n2)cc1C (centres unmarked) [compound 518] | 100 | 100
CSC[C@H](C)NC(=O)c1c(Cl)cccc1C(=O)Nc1ccc(Cn2nc(SC(F)(F)C(F)(F)C(F)(F)F)nc2C(F)(F)F)cc1C [compound 804] | 100 | 100
CCS(=O)(=O)CC(C)NC(=O)c1c(I)cccc1C(=O)Nc1ccc(Cn2nc(C(F)(F)F)cc2C(F)(F)F)cc1C (centres unmarked) [compound 93] | 100 | 100

SMILES | controlling effect, rate of death [1] [%] | controlling effect, rate of death [2] [%]
CSCC(C)NC(=O)c1c(I)cccc1C(=O)Nc1ccc(-n2nc(C(F)(F)F)cc2C(F)(F)F)cc1C (centres unmarked) [compound 413] | 100 | 100
CSC[C@H](C)NC(=O)c1c(C(=O)Nc2ccc(Cn3nc(C(F)(F)F)cc3C(F)(F)F)cc2C)cccc1[N+](=O)[O-] [compound 543] | 100 | 100
Cc1cc(Cn2cc(C(F)(F)C(F)(F)F)c(C(F)(F)C(F)(F)F)n2)ccc1NC(=O)c1cccc(I)c1C(=O)N[C@@H](C)C[S+](C)[O-] (some centres unmarked) [compound 655] | 100 | 100
Cc1cc(Cn2nc(C(F)(F)F)nc2C(F)(F)F)ccc1NC(=O)c1cccc(Cl)c1C(=O)NC(C)(C)C[S+](C)[O-] (centres unmarked) [compound 138] | 100 | 100
CSC[C@H](C)NC(=O)c1c(C(=O)Nc2ccc(Cn3nc(C(F)(F)F)nc3C(F)(F)F)cc2C)cccc1[N+](=O)[O-] [compound 546] | 100 | 100
CSC[C@H](C)NC(=O)c1c(F)cccc1C(=O)Nc1ccc(Cn2nc(C(F)(F)F)cc2C(F)(F)F)cc1C [compound 549, N^1-{4-[3,5-bis(trifluoromethyl)-1H-pyrazol-1-ylmethyl]-2-methylphenyl}-3-fluoro-N^2-[1-(S)-1-methyl-2-methylsulfanyl-ethyl]-phthalamide] | 100 | 100
Cc1cc(Cn2nc(C(F)(F)F)cc2C(F)(F)F)ccc1NC(=O)c1cccc(I)c1C(=O)NC(C)(C)CS(C)(=O)=O [compound 84, N^1-{4-[3,5-bis(trifluoromethyl)-1H-pyrazol-1-ylmethyl]-2-methylphenyl}-3-iodo-N^2-(2-methanesulfonyl-1,1-dimethylethyl)phthalamide] | 100 | 100
Cc1cc(Cn2cc(C(F)(F)C(F)(F)F)c(C(F)(F)F)n2)ccc1NC(=O)c1cccc(Cl)c1C(=O)N[C@@H](C)C[S+](C)[O-] (some centres unmarked) [compound 638] | 100 | 100
CSC[C@H](C)NC(=O)c1c(Cl)cccc1C(=O)Nc1ccc(Cn2cc(C(F)(F)C(F)(F)C(F)(F)C(F)(F)F)c(C(F)(F)C(F)(F)F)n2)cc1C [compound 663] | 100 | 100
CSC[C@H](C)NC(=O)c1c(Cl)cccc1C(=O)Nc1ccc(Cn2cc(C(F)(F)C(F)(F)F)c(C(F)(F)C(F)(F)C(F)(F)F)n2)cc1C [compound 665] | 100 | 100
CC[S+]([O-])CC(C)NC(=O)c1c(I)cccc1C(=O)Nc1ccc(Cn2nc(C(F)(F)F)nc2C(F)(F)F)cc1C (centres unmarked) [compound 221] | 100 | 100
CSCC(C)NC(=O)c1c(I)cccc1C(=O)Nc1ccc(Cn2cc(C(F)(F)F)nc2C(F)(F)F)cc1C (centres unmarked) [compound 281] | 100 | 100
CSC[C@H](C)NC(=O)c1c(Cl)cccc1C(=O)Nc1ccc(Cn2nc(C(F)(F)C(F)(F)F)nc2C(F)(F)C(F)(F)F)cc1C [compound 681] | 100 | 100
Cc1cc(-c2cc(C(F)(F)F)nn2CC(F)(F)F)ccc1NC(=O)c1cccc(I)c1C(=O)NC(C)CS(C)(=O)=O (centres unmarked) [compound 508] | 100 | 100
CSC[C@H](C)NC(=O)c1c(Cl)cccc1C(=O)Nc1ccc(Cn2cc(C(F)(F)C(F)(F)F)c(C(F)(F)F)n2)cc1C [compound 637] | 100 | 100
Cc1cc(Cn2nc(C(F)(F)F)cc2C(F)(F)F)ccc1NC(=O)c1cccc(I)c1C(=O)N[C@@H](C)CSC(C)C [compound 539] | 100 | 100
Cc1cc(Cn2nc(C(F)(F)F)cc2C(F)(F)F)ccc1NC(=O)c1cccc(Cl)c1C(=O)NC(C)C[S+](C)[O-] (mixture of isomers) [compound 13] | 100 | 100
